Reference: patent US20090253669A1, “Substituted Sulfonamide Compounds” (GRUENENTHAL GmbH, priority 2008, published 2009)

Experiments:
[1] = biological target: T1, human B1R receptor (hB1R) (Homo sapiens, UniProt P46663); assay: FLIPR Ca2+ assay on hB1R-transfected CHO K1 cells, antagonistic action; format: cell-based; details: CHO-K1, 10 μM test substance; agonist Lys-Des-Arg9-bradykinin 0.5 nM; % of maximum achievable inhibition; read-out: hB1R [10 μM] % inhibition
T1 construct: host or cells: CHO K1 cells
T1 sequence (P46663 1-353): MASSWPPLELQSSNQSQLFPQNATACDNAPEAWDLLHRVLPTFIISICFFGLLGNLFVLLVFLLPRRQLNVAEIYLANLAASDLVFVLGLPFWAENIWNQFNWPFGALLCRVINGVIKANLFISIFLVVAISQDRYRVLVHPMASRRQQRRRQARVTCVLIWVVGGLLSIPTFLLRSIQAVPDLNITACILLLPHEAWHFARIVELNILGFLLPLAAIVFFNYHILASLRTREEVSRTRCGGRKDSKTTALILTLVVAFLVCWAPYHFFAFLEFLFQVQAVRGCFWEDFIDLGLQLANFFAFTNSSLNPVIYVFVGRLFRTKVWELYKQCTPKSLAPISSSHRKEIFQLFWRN

[2] = biological target: T2, B1R receptor of the rat (rB1R) (Rattus norvegicus, UniProt P97583); assay: FLIPR Ca2+ assay on rB1R-transfected CHO K1 cells, antagonistic action; format: cell-based; details: CHO-K1, 10 μM test substance; agonist Des-Arg9-bradykinin 100 nM; % of maximum achievable inhibition; read-out: rB1R [10 μM] % inhibition
T2 construct: host or cells: CHO K1 cells
T2 sequence (P97583 1-337): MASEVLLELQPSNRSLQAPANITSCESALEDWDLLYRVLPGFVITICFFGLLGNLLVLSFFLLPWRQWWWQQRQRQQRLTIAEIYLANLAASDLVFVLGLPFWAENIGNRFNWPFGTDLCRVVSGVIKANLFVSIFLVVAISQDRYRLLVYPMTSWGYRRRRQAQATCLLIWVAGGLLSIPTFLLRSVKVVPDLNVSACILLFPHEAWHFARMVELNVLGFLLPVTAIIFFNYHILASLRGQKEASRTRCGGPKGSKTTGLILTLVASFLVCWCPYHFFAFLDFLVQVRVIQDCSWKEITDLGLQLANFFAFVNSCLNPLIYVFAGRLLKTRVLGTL

Compound: COc1cc(C)c(S(=O)(=O)N(C)CCOCC(=O)NC2CCC(Cc3ccccc3)(N3CCCCCC3)CC2)c(C)c1 (centres unmarked) [Compound 20, N-(4-(azepan-1-yl)-4-benzylcyclohexyl)-2-(2-(4-methoxy-N,2,6-trimethylphenylsulfonamido)ethoxy)acetamide]
- inhibition at 10 µM [1]: 91%
- inhibition at 10 µM [2]: 69%

Compound: CN(CC1CCC(Cc2ccccc2)(N2CCCC2)CC1)C(=O)CC(NS(=O)(=O)c1ccc2ccccc2c1)c1ccccc1 (centres unmarked) [Compound 112, N-((4-benzyl-4-(pyrrolidin-1-yl)cyclohexyl)methyl)-N-methyl-3-(naphthalene-2-sulfonamido)-3-phenylpropanamide]
- inhibition at 10 µM [1]: 97%
- inhibition at 10 µM [2]: 77%

Compound: COc1cc(C)c(S(=O)(=O)N(C)CCOCC(=O)N(C)CCC2CCC(CCc3ccccc3)(N3CCCC3)CC2)c(C)c1 (centres unmarked) [Compound 58, 2-(2-(4-methoxy-N,2,6-trimethylphenylsulfonamido)ethoxy)-N-methyl-N-(2-(4-phenethyl-4-(pyrrolidin-1-yl)cyclohexyl)ethyl)acetamide]
- inhibition at 10 µM [1]: 103%
- inhibition at 10 µM [2]: 100%

Compound: CN(C)C1(CCc2ccccc2)CCN(C(=O)CC2CCCCN2S(=O)(=O)c2cccc(C(F)(F)F)c2)CC1 (centres unmarked) [Compound 71, 1-(4-(dimethylamino)-4-phenethylpiperidin-1-yl)-2-(1-(3-(trifluoromethyl)phenylsulfonyl)piperidin-2-yl)ethanone]
- inhibition at 10 µM [1]: 92%
- inhibition at 10 µM [2]: 99%

Compound: CN1CCN(C2(CCc3ccccc3)CCC(CN(C)C(=O)COCCN(C)S(=O)(=O)c3c(Cl)cc(Cl)cc3Cl)CC2)CC1 (centres unmarked) [Compound 195, N-methyl-N-((4-(4-methylpiperazin-1-yl)-4-phenethylcyclohexyl)methyl)-2-(2-(2,4,6-trichloro-N-methylphenylsulfonamido)ethoxy)acetamide]
- inhibition at 10 µM [1]: 100%
- inhibition at 10 µM [2]: 28%

Compound: COc1cc(C)c(S(=O)(=O)N(C)CCOCC(=O)N(C)CC2CCC(CCc3ccccc3)(N3CCCC3)CC2)c(C)c1 (centres unmarked) [Compound 47, 2-(2-(4-methoxy-N,2,6-trimethylphenylsulfonamido)ethoxy)-N-methyl-N-((4-phenethyl-4-(pyrrolidin-1-yl)cyclohexyl)methyl)acetamide]
- inhibition at 10 µM [1]: 102%
- inhibition at 10 µM [2]: 100%

Compound: COc1cc(C)c(S(=O)(=O)N2CCCC2COCC(=O)N(C)CC2CCC(Cc3ccccc3)(N3CCN(C)CC3)CC2)c(C)c1 (centres unmarked) [Compound 154, N-((4-benzyl-4-(4-methylpiperazin-1-yl)cyclohexyl)methyl)-2-((1-(4-methoxy-2,6-dimethylphenylsulfonyl)pyrrolidin-2-yl)methoxy)-N-methylacetamide]
- inhibition at 10 µM [1]: 95%
- inhibition at 10 µM [2]: 101%

Compound: Cc1cccc(Cl)c1S(=O)(=O)N1c2ccccc2OCC1COCC(=O)N1CCC(c2cccc(F)c2)(N2CCN(C)CC2)CC1 (centres unmarked) [Compound 222, 2-((4-(2-Chloro-6-methylphenylsulfonyl)-3,4-dihydro-2H-benzo[b][1,4]oxazin-3-yl)methoxy)-1-(4-(3-fluorophenyl)-4-(4-methylpiperazin-1-yl)piperidin-1-yl)ethanone]
- inhibition at 10 µM [1]: 97%
- inhibition at 10 µM [2]: 97%

Compound: CN(C)C1(CCc2ccccc2)CCN(C(=O)CC(NS(=O)(=O)c2ccc3ccccc3c2)c2ccccc2)CC1 (centres unmarked) [Compound 105, N-(3-(4-(dimethylamino)-4-phenethylpiperidin-1-yl)-3-oxo-1-phenylpropyl)naphthalene-2-sulfonamide]
- inhibition at 10 µM [1]: 83%
- inhibition at 10 µM [2]: 81%

Compound: COc1cc(C)c(S(=O)(=O)N2c3ccccc3OCC2COCC(=O)N2CCC(c3cccc(F)c3)(N3CCN(C)CC3)CC2)c(C)c1 (centres unmarked) [Compound 221, 1-(4-(3-Fluorophenyl)-4-(4-methylpiperazin-1-yl)piperidin-1-yl)-2-((4-(4-methoxy-2,6-dimethylphenylsulfonyl)-3,4-dihydro-2H-benzo[b][1,4]oxazin-3-yl)methoxy)ethanone]
- inhibition at 10 µM [1]: 99%
- inhibition at 10 µM [2]: 99%

Compound: COc1cc(C)c(S(=O)(=O)N(C)CCOCC(=O)NC2CCC(c3ccccc3)(N3CCCCC3)CC2)c(C)c1C (centres unmarked) [Compound 28, 2-(2-(4-methoxy-N,2,3,6-tetramethylphenylsulfonamido)ethoxy)-N-(4-phenyl-4-(piperidin-1-yl)cyclohexyl)acetamide]
- inhibition at 10 µM [1]: 60%
- inhibition at 10 µM [2]: 48%

Compound: COc1cc(C)c(S(=O)(=O)N2CCCCC2COCC(=O)N2CCC(c3ccc(F)cc3)(N3CCN(C)CC3)CC2)c(C)c1 (centres unmarked) [Compound 70, 1-(4-(4-fluorophenyl)-4-(4-methylpiperazin-1-yl)piperidin-1-yl)-2-((1-(4-methoxy-2,6-dimethylphenylsulfonyl)piperidin-2-yl)methoxy)ethanone]
- inhibition at 10 µM [1]: 104%
- inhibition at 10 µM [2]: 99%

Compound: COc1cc(C)c(S(=O)(=O)N(C)CCOCC(=O)N(C)CC2CCC(Cc3ccccc3)(N3CCN(C)CC3)CC2)c(C)c1 (centres unmarked) [Compound 183, N-((4-benzyl-4-(4-methylpiperazin-1-yl)cyclohexyl)methyl)-2-(2-(4-methoxy-N,2,6-trimethylphenylsulfonamido)ethoxy)-N-methylacetamide]
- inhibition at 10 µM [1]: 102%
- inhibition at 10 µM [2]: 66%

Compound: COc1cc(C)c(S(=O)(=O)N(C)CCOCC(=O)NC2CCC(c3cccc(F)c3)(N(C)C)CC2)c(C)c1 (centres unmarked) [Compound 6, N-(4-(dimethylamino)-4-(3-fluorophenyl)cyclohexyl)-2-(2-(4-methoxy-N,2,6-trimethylphenylsulfonamido)ethoxy)acetamide]
- inhibition at 10 µM [1]: 100%
- inhibition at 10 µM [2]: 100%

Compound: Cc1cc(S(=O)(=O)N2CCCCC2CCC(=O)N(C)CCC2CCC(c3ccccc3)(N(C)C)CC2)c(C)cc1Cl (centres unmarked) [Compound 107, 3-(1-(4-chloro-2,5-dimethylphenylsulfonyl)piperidin-2-yl)-N-(2-(4-(dimethylamino)-4-phenylcyclohexyl)ethyl)-N-methylpropanamide]
- inhibition at 10 µM [1]: 105%
- inhibition at 10 µM [2]: 79%

Compound: COc1cc(C)c(S(=O)(=O)N2CCC(OCC(=O)NC3CCC(c4ccccc4)(N4CCCCC4)CC3)C2)c(C)c1 (centres unmarked) [Compound 27, 2-(1-(4-methoxy-2,6-dimethylphenylsulfonyl)pyrrolidin-3-yloxy)-N-(4-phenyl-4-(piperidin-1-yl)cyclohexyl)acetamide]
- inhibition at 10 µM [1]: 69%
- inhibition at 10 µM [2]: 51%

Compound: COc1cc(C)c(S(=O)(=O)N2CCC(OCC(=O)NC3CCC(Cc4ccccc4C)(N(C)C)CC3)C2)c(C)c1 (centres unmarked) [Compound 14, N-(4-(dimethylamino)-4-(2-methylbenzyl)cyclohexyl)-2-(1-(4-methoxy-2,6-dimethylphenylsulfonyl)pyrrolidin-3-yloxy)acetamide]
- inhibition at 10 µM [1]: 89%
- inhibition at 10 µM [2]: 82%

Compound: CN1CCN(C2(c3ccccc3)CCN(C(=O)CC(NS(=O)(=O)c3ccc4ccccc4c3)c3ccccc3)CC2)CC1 (centres unmarked) [Compound 82, N-(3-(4-(4-methylpiperazin-1-yl)-4-phenylpiperidin-1-yl)-3-oxo-1-phenylpropyl)naphthalene-2-sulfonamide]
- inhibition at 10 µM [1]: 99%
- inhibition at 10 µM [2]: 99%

Compound: Cc1cccc(Cl)c1S(=O)(=O)N1CCCCC1CCCC(=O)N1CCC(c2cccc(F)c2)(N2CCN(C)CC2)CC1 (centres unmarked) [Compound 212, 4-(1-(2-Chloro-6-methylphenylsulfonyl)piperidin-2-yl)-1-(4-(3-fluorophenyl)-4-(4-methylpiperazin-1-yl)piperidin-1-yl)butan-1-one]
- inhibition at 10 µM [1]: 100%
- inhibition at 10 µM [2]: 100%
